Where a name gives a salt, the structure may show the parent alone.
Molecular target: T1, human GPR52 (Homo sapiens, UniProt Q9Y2T5)
T1 construct: expressed in transfected cells; host or cells: CHO(dhfr-) cells
Assay: Increase of intracellular cAMP concentration in human GPR52-expressing CHO cell (AlphaScreen cAMP assay)
Assay type: cell-based
Conditions: test compound 10 µm, 37°C, 30 min, human GPR52-expressing CHO(dhfr-) cells, 100% = cAMP with 1 µM N-(2-hydroxyethyl)-3-[2-[3-(trifluoromethyl)benzyl]-1-benzofuran-4-yl]benzamide, 0% = DMSO; for activation at 10 µM: 0.5 h, read-out: GPR52 agonist activity (%)
Procedure: Increase of intracellular cAMP concentration in human GPR52-expressing CHO cell
Using OptiPlate-384 (PerkinElmer Inc.), 1×10^4 human GPR52-expressing CHO(dhfr-) cells were incubated together with a test compound ([…]) in an assay buffer (30 µL, HBSS (containing Ca^2+ and Mg^2+), 0.5% BSA, 100 µM IBMX, 100 µM Ro20-1724, 5 mM HEPES (pH 7.55)) at 37°C for 30 min. Thereafter, according to the protocol of AlphaScreen cAMP Assay Kit (PerkinElmer Inc.), the intracellular cAMP concentration was measured by EnVision (PerkinElmer Inc.). The GPR52 agonist activity was calculated, assuming the intracellular cAMP concentration in the presence of 1 µM N-(2-hydroxyethyl)-3-[2-[3-(trifluoromethyl)benzyl]-1-benzofuran-4-yl]benzamide to be 100% and assuming the intracellular cAMP concentration when DMSO was added instead of the test compound to be 0%.

T1 sequence (Q9Y2T5 whole entry): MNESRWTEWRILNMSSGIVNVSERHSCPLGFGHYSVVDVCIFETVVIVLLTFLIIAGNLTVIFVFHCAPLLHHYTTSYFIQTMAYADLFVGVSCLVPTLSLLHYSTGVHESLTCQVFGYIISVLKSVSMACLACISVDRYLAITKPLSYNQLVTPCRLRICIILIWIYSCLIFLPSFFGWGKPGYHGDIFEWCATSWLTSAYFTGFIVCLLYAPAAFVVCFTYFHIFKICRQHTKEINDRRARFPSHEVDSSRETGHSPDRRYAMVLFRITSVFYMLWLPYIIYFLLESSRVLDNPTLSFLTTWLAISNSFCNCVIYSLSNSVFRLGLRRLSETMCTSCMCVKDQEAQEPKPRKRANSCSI

| Compound | activation at 10 µM | GPR52 agonist activity (%) |
| --- | --- | --- |
| Cc1nc(Cc2cc(F)cc(Cl)c2)sc1NC(=O)c1ccnn1CC(C)C [Example 162, N-[2-(3-chloro-5-fluorobenzyl)-4-methyl-1,3-thiazol-5-yl]-1-(2-methylpropyl)-1H-pyrazole-5-carboxamide] | 70% |  |
| Cc1nc(Cc2cccc(Cl)c2)sc1NC(=O)c1ccnn1C [Example 157, N-[2-(3-chlorobenzyl)-4-methyl-1,3-thiazol-5-yl]-1-methyl-1H-pyrazole-5-carboxamide] | 77% |  |
| Cn1nccc1C(=O)Nc1sc(Cc2cccc(C(F)(F)F)c2)nc1CO [Example 6, N-{4-(hydroxymethyl)-2-[3-(trifluoromethyl)benzyl]-1,3-thiazol-5-yl}-1-methyl-1H-pyrazole-5-carboxamide] | 83% |  |
| Cc1nc(Cc2cccc(C(F)(F)F)c2)sc1NC(=O)c1c(C)nn(C)c1C [Example 47, 1,3,5-trimethyl-N-{4-methyl-2-[3-(trifluoromethyl)-benzyl]-1,3-thiazol-5-yl}-1H-pyrazole-4-carboxamide] | 82% |  |
| Cc1nc(Cc2cccc(C(F)(F)F)c2)sc1NC(=O)c1c(C)nn(C)c1Cl [Example 51, 5-chloro-1,3-dimethyl-N-{4-methyl-2-[3-(trifluoromethyl)-benzyl]-1,3-thiazol-5-yl}-1H-pyrazole-4-carboxamide] | 77% |  |
| CCOC(=O)c1cc(C(=O)Nc2sc(Cc3cc(F)cc(Cl)c3)nc2C)n(C)n1 [Example 159, ethyl 5-{[2-(3-chloro-5-fluorobenzyl)-4-methyl-1,3-thiazol-5-yl]carbamoyl}-1-methyl-1H-pyrazole-3-carboxylate] | 71% |  |
| COCc1nc(Cc2cccc(C(F)(F)F)c2)sc1NC(=O)c1ccnn1C [Example 8, N-{4-(methoxymethyl)-2-[3-(trifluoromethyl)benzyl]-1,3-thiazol-5-yl}-1-methyl-1H-pyrazole-5-carboxamide] | 78% |  |
| Cc1cc(C(=O)Nc2sc(Cc3cc(F)cc(Cl)c3)nc2C)n(C)n1 [Example 147, N-[2-(3-chloro-5-fluorobenzyl)-4-methyl-1,3-thiazol-5-yl]-1,3-dimethyl-1H-pyrazole-5-carboxamide] | 78% |  |
| COCCNC(=O)[C@@H]1C[C@H]1C(=O)Nc1sc(Cc2cc(F)cc(Cl)c2)nc1C (relative stereo) [Example 189, trans-N-[2-(3-chloro-5-fluorobenzyl)-4-methyl-1,3-thiazol-5-yl]-N'-(2-methoxyethyl)cyclopropane-1,2-dicarboxamide] | 78% |  |
| Cc1nc(Cc2cccc(C(F)(F)F)c2)sc1NC(=O)C1(C#N)CC1 [Example 39, 1-cyano-N-{4-methyl-2-[3-(trifluoromethyl)benzyl]-1,3-thiazol-5-yl}cyclopropanecarboxamide] | 79% |  |
| CCCCc1nc(Cc2cccc(C(F)(F)F)c2)sc1NC(=O)c1ccnn1C [Example 16, N-{4-butyl-2-[3-(trifluoromethyl)benzyl]-1,3-thiazol-5-yl}-1-methyl-1H-pyrazole-5-carboxamide] | 72% |  |
| Cc1nocc1C(=O)Nc1sc(Cc2cccc(C(F)(F)F)c2)nc1C [Example 24, 3-methyl-N-{4-methyl-2-[3-(trifluoromethyl)benzyl]-1,3-thiazol-5-yl}isoxazole-4-carboxamide] |  | 93% |
| Cc1nc(Cc2cccc(C(F)(F)F)c2)sc1NC(=O)C1CCNCC1 [Example 33, N-{4-methyl-2-[3-(trifluoromethyl)benzyl]-1,3-thiazol-5-yl}piperidine-4-carboxamide hydrochloride] | 70% |  |
| Cc1nc(Cc2cc(F)cc(F)c2)sc1NC(=O)c1ccnn1C [Example 220, N-[2-(3,5-difluorobenzyl)-4-methyl-1,3-thiazol-5-yl]-1-methyl-1H-pyrazole-5-carboxamide] | 79% |  |
| Cc1nc(Cc2cccc(C(F)(F)F)c2)sc1NC(=O)C1CCCNC1 (stereo not drawn) [Example 29, N-{4-methyl-2-[3-(trifluoromethyl)benzyl]-1,3-thiazol-5-yl}piperidine-3-carboxamide hydrochloride] | 71% |  |
| COc1cc(C(=O)Nc2sc(Cc3cc(F)cc(Cl)c3)nc2C)n(C)n1 [Example 235, N-[2-(3-chloro-5-fluorobenzyl)-4-methyl-1,3-thiazol-5-yl]-3-methoxy-1-methyl-1H-pyrazole-5-carboxamide] | 79% |  |
| CCCc1nc(Cc2cccc(C(F)(F)F)c2)sc1NC(=O)c1ccnn1C [Example 14, 1-methyl-N-{4-propyl-2-[3-(trifluoromethyl)benzyl]-1,3-thiazol-5-yl}-1H-pyrazole-5-carboxamide] | 80% |  |
| Cc1nc(Cc2cc(F)cc(Cl)c2)sc1NC(=O)c1cc(CC#N)nn1C [Example 230, N-[2-(3-chloro-5-fluorobenzyl)-4-methyl-1,3-thiazol-5-yl]-3-(cyanomethyl)-1-methyl-1H-pyrazole-5-carboxamide] | 71% |  |
| Cc1nc(Cc2cccc(C3CC3)c2)sc1NC(=O)c1ccnn1C [Example 227, N-[2-(3-cyclopropylbenzyl)-4-methyl-1,3-thiazol-5-yl]-1-methyl-1H-pyrazole-5-carboxamide] | 101% |  |
| Cc1nc(C(O)c2cccc(C(F)(F)F)c2)sc1NC(=O)c1ccnn1C (stereo not drawn) [Example 210, N-(2-{hydroxy[3-(trifluoromethyl)phenyl]methyl}-4-methyl-1,3-thiazol-5-yl)-1-methyl-1H-pyrazole-5-carboxamide] | 82% |  |
| Cc1nc(Cc2cccc(C(F)(F)F)c2)sc1NC(=O)c1cncn1C [Example 43, 1-methyl-N-{4-methyl-2-[3-(trifluoromethyl)-benzyl]-1,3-thiazol-5-yl}-1H-imidazole-5-carboxamide] | 73% |  |
| Cc1nc(Cc2cc(F)cc(Cl)c2)sc1NC(=O)c1cc(S(C)(=O)=O)nn1C [Example 246, N-[2-(3-chloro-5-fluorobenzyl)-4-methyl-1,3-thiazol-5-yl]-1-methyl-3-(methylsulfonyl)-1H-pyrazole-5-carboxamide] | 70% |  |
| Cc1nc(Cc2cc(F)cc(Cl)c2)sc1NC(=O)c1c(Cl)cnn1C [Example 206, 4-chloro-N-[2-(3-chloro-5-fluorobenzyl)-4-methyl-1,3-thiazol-5-yl]-1-methyl-1H-pyrazole-5-carboxamide] | 74% |  |
| C=Cc1nc(Cc2cccc(C(F)(F)F)c2)sc1NC(=O)c1ccnn1C [Example 12, N-{4-ethenyl-2-[3-(trifluorornethyl)benzyl]-1,3-thiazol-5-yl}-1-methyl-1H-pyrazole-5-carboxamide] | 75% |  |
| Cc1nc(Cc2cccc(C(F)(F)F)c2)sc1NC(=O)c1ccnn1C [Example 110, 1-methyl-N-{4-methyl-2-[3-(trifluoromethyl)-benzyl]-1,3-thiazol-5-yl}-1H-pyrazole-5-carboxamide] | 82% |  |
| Cc1nc(Cc2cccc(Br)c2)sc1NC(=O)c1ccnn1C [Example 224, N-[2-(3-bromobenzyl)-4-methyl-1,3-thiazol-5-yl]-1-methyl-1H-pyrazole-5-carboxamide] | 80% |  |
| CCc1cc(C(=O)Nc2sc(Cc3cc(F)cc(Cl)c3)nc2C)n(C)n1 [Example 177, N-[2-(3-chloro-5-fluorobenzyl)-4-methyl-1,3-thiazol-5-yl]-3-ethyl-1-methyl-1H-pyrazole-5-carboxamide] | 86% |  |
